Counter-ions that a name gives are not always drawn.
Key:
Korsakoff's disease = conditions: pretreatment; rat model; cited from earlier work
sigma brain receptor = conditions: Weber et al. 1986; U.S. Pat. No. 4,709,094; cited from earlier work
[1] = system: lesions caused by NMDA injection; test: In vivo neurotoxicity assay: NMDA-induced lesion (model of McDonald et al.); set-up: species or system rat; conditions: 0.1 to 100 umol/kg of body weight; intraperitoneal, 15 minutes following cerebral NMDA injection
Excerpt: In the in vivo neurotoxicity studies, the experimental model of McDonald, J. W., et al., (In: Sigma and Phencyclidine-like Compounds as Molecular Probes in Biology, Ed. Domino, E. F., and Kamenka, J.-M., pp. 697-707 (1988), NPP Books, Ann Arbor, Mich.) can be employed. In this model, an NMDA injection into one cerebral hemisphere of a rat pup causes brain injury which resembles the lesion produced by hypoxia-ischemia. The ability of test compounds to limit the NMDA-induced lesion is a measure of their neuroprotective properties; and, since the compounds are administered intraperitoneally, the model also provides information about a compound's ability to cross the blood-brain barrier.
The experimental model of McDonald, J. W., et al., supra, was employed with the single alteration in protocol of an intraperitoneal injection of the test compound 15 minutes following, rather than preceding, the cerebral NMDA injection.

Structure (SMILES): C[C@]12N[C@H](Cc3ccccc31)c1ccccc12 [MK-801, (+)-5-methyl-10,11-dihydro-5H-dibenzo[a,d]cycloheptene-5,10-imine]
- extent of cell loss, hemorrhages and amino acid changes (Korsakoff's disease): markedly attenuates the extent of cell loss, hemorrhages and amino acid changes

Structure (SMILES): Cc1ccccc1NC(=N)Nc1ccccc1C [DTG, 1,3 di-o-tolyl-guanidine]
- selectivity for the sigma receptor (sigma brain receptor): strong selectivity for the sigma receptor

Structure (SMILES): CCc1cccc(N(C)C(=N)Nc2cccc3ccccc23)c1 [Compound VII, N-(1-Naphthyl)-N'-(m-ethylphenyl)-N'-methylquanidine Hydrochloride]
- protection against the lesions caused by NMDA injection [1]: protect against the lesions caused by NMDA injection

Source: patent US6251948A, “Tri-and tetra-substituted guanidines and their use as excitatory amino acid antagonists” (State of Oregon, acting by and through the Oregon State …, priority 1995, dated 2001)
